Experimental data taken from publication PMC13061574 (Nature structural & molecular biology, 2024).
Where a chain is given by its changes, count along the chain named. In names and notes the source's numbering stands.

Key:
THIK1 (K2P13.1) [1] = molecular target: T1, THIK1 (K2P13.1) (Homo sapiens, UniProt Q9HB14, R92A); test: TEVC electrophysiology dose–response, activation; format: cell-based
T1 sequence (Q9HB14 1-408 R92A): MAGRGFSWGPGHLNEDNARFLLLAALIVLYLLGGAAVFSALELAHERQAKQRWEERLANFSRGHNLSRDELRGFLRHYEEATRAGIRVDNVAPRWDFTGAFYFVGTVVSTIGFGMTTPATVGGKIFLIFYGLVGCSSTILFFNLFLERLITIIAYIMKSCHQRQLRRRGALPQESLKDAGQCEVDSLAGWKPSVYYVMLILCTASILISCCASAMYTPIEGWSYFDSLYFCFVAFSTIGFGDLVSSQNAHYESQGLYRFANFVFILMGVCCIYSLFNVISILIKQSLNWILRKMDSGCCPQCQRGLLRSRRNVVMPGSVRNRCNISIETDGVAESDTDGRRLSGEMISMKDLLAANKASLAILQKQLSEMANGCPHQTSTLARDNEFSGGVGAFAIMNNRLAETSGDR

THIK1 (K2P13.1) [2] = molecular target: T1, THIK1 (K2P13.1); test: TEVC electrophysiology, activation; format: cell-based
cryo-EM structure = molecular target: the molecule itself; test: cryo-EM structure

Molecule: CCCCC/C=C\C/C=C\CCCCCCCC(=O)O [EIC, linoleic acid]
- EC50 (THIK1 (K2P13.1) [1]): 700 nM

Molecule: CC/C=C\C/C=C\C/C=C\C/C=C\C/C=C\CCCC(=O)O [EPA, eicosapentanoic acid]
- TEVC electrophysiology, activation (THIK1 (K2P13.1) [2]): α-LNL, eicosapentanoic acid (EPA), dihomo-γ-EIC (DGLA) and oleic acid (OA) also activated R92A

Molecule: CCCCCCCC/C=C\CCCCCCCC(=O)O [OA, oleic acid]
- TEVC electrophysiology, activation (THIK1 (K2P13.1) [2]): α-LNL, eicosapentanoic acid (EPA), dihomo-γ-EIC (DGLA) and oleic acid (OA) also activated R92A

B1: THIK1EM (human K2P13.1 (THIK1) residues 1-350, N59Q, N65Q) (domain or fragment, UniProt Q9HB14 1-350, looked up)
chain: MAGRGFSWGPGHLNEDNARFLLLAALIVLYLLGGAAVFSALELAHERQAKQRWEERLAQFSRGHQLSRDELRGFLRHYEEATRAGIRVDNVRPRWDFTGAFYFVGTVVSTIGFGMTTPATVGGKIFLIFYGLVGCSSTILFFNLFLERLITIIAYIMKSCHQRQLRRRGALPQESLKDAGQCEVDSLAGWKPSVYYVMLILCTASILISCCASAMYTPIEGWSYFDSLYFCFVAFSTIGFGDLVSSQNAHYESQGLYRFANFVFILMGVCCIYSLFNVISILIKQSLNWILRKMDSGCCPQCQRGLLRSRRNVVMPGSVRNRCNISIETDGVAESDTDGRRLSGEMISMK
- stoichiometry N (cryo-EM structure): 2

B2: THIK1EM-S136P (domain or fragment, human, UniProt Q9HB14 1-350, looked up)
chain: B1 chain with S136P
- binding result (cryo-EM structure): binds
